Results as given in publication PMC6934184, “Selective DNA-PKcs inhibition extends the therapeutic index of localized radiotherapy and chemotherapy” (The Journal of Clinical Investigation, 2019).

Molecular target: T1, SYK (Homo sapiens, UniProt P43405)
T1 construct: purchased Thermo Fisher Scientific (Life Technologies) SelectScreen
Assay: SelectScreen Z'LYTE
Type: biochemical
Method in brief: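 SelectScreen broad panel; activity (Z'LYTE, Adapta) plus binding formats. ATP: Km app for CSF1R Z'LYTE; 10 for CAMK1 Adapta. Readout = % per kinase.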

`CN(C(=O)CN1CCOCC1)c1ccc2sc3c(-c4cccc5c(=O)cc(N6CC7CCC(C6)O7)oc45)cccc3c2c1` [NU5455] was tested. Which inhibition at 1 µM did it give?
Its inhibition at 1 µM is -0.2%.
